Measured values taken from patent publication US20100209846A1, “NEGATIVE-WORKING IMAGEABLE ELEMENTS” (priority 2009, published 2010).

Experiment: Solubility of contrast dye in water
Assay type: physicochemical

CCCCCCC(CCCCCC)c1ccc(/C=C2/C(=C(C#N)C#N)c3ccccc3S2(=O)=O)c(C)c1
Solubility of contrast dye in 1 liter water: 0.25 g

CN(C)c1ccc(C(=C2C=CC(=[N+](C)C)C=C2)c2ccc(N(C)C)cc2)cc1 [Crystal Violet]
Solubility of contrast dye in 1 liter water: 4 g
